Laboratory results published in patent US20250263396A1, “CRYSTALLINE FORMS OF 3-(5-(2-HYDROXY-2- METHYLPROPOXY)-6-METHYPYRAZIN-2-YL)-1H-INDOLE-7-CARBONITRILE” (NIDO BIOSCIENCES, INC., priority 2024, published 2025).
Like-named read-outs stand apart in the source and are kept apart here.

Columns and labels:
[1] = Wet granulation simulation experiments; type: physicochemical
Experimental: Water or ethanol was added drop wise to about 10 mg of Form P until the sample is wetted sufficiently. Wet sample was ground gently with in a mortar and a pestle. Post granulation sample was dried under ambient condition for 10 min.
Water or ethanol was added drop wise to about 10 mg of Form C until the sample is wetted sufficiently. Wet sample was ground gently with in a mortar and a pestle. Post granulation sample was dried under ambient condition for 5 min.

[2] = physchem; conditions: water, thermodynamic from solid, Approximate solubility
Experimental: Form P (5 mg, purity 100%) was weighed to a 2 mL glass vial. 20 μL aliquots of each solvent were added to dissolve the drug substance at 25 C. […] Vortex and sonication were applied to assist dissolution. Max. volume of each solvent added is 1 mL. For obtained suspensions (Exp. ID 1, 10 and 11) after addition of 1 mL solvent at 25° C., they were placed at 50° C. Approximate solubility was determined by visual observation.

[3] = 24 hours; for XRPD: residual solids; for pH: supernatant
Experimental: Non-milled Form P (10 mg, purity 100%) was weighed into a 20 mL glass vial. 5 mL of solubility medium was added. Obtained suspensions were stirred at 37° C. at 400 rpm and sampled at 24 hours. The samples were centrifuged at 37 C at 14,000 rpm for 5 min. Supernatants were analyzed by HPLC and pH meter for solubility and pH value, respectively. Residual solids (wet cakes) from the 24 hours samples were also characterized by XRPD to determine physical form.

[4] = Hygroscopicity by dynamic vapor sorption (DVS); type: physicochemical
Experimental: Dynamic vapor sorption (DVS) was performed on an Intrinsic, Advantage or Adventure with an oven temperature of 25° C. using water as a solvent. The sample mass was about 5-10 mg using the following method: • Cycle: 40-0-95-0-40% RH • Stage Step: 10% • Equilibrium: 0.002 dm/dt (%/min) • Minimum dm/dt stability duration: 60 min • Maximum dm/dt stage time: 360 min.
Hygroscopicity of Form P was evaluated by dynamic vapor sorption (DVS) test at 25° C. Form P is non-hygroscopic at 80% RH; about 0.1% water uptake at 80% RH. Form P is slightly hygroscopic from 80% RH-95% RH: About 1.6% water uptake from 80% RH to 95% RH.

[5] = Form change on heating, dehydration or desolvation (TGA, DSC, variable temperature XRPD); type: physicochemical; conditions: heated above 176° C. using milled Form P, variable temperature XRPD
Experimental: Relative stability of the anhydrates Form R and Form P was investigated by variable temperature XRPD and competitive equilibration experiments.
Relative stability of the anhydrates Form B, Form X, Form Y and Form C was investigated by variable temperature XRPD. Form B converted to Form X, Form Y and Form C after heating to 150° C., 176° C. and 180° C., respectively.

[6] = cake dried under vacuum
Description: The cake of Form P was dried under vacuum at different temperatures to evaluate the chemical stability of dry cake.

[7] = wet cake in sealed bottle
Experimental: Wet cake chemical stability of Form P at 40° C., 50° C., 60° C. was evaluated.

[8] = Solid state
Experimental: Bulk stability of Form P was evaluated at 25° C./92% RH in an open container, at 40° C./75% RH in an open container and at 60° C. in a tight container over 1 week, 2 weeks and 4 weeks. […] Samples after the stress were characterized by XRPD and HPLC and inspected for color change. Form P was also stressed under visible light for 1.2 million lux-hrs. at 25° C. Samples after the stress were characterized by XRPD and HPLC and inspected for color change.

[9] = Dry grinding simulation experiments; type: physicochemical; conditions: ground manually with mortar and pestle
Experimental: About 10 mg of Form P was ground manually with a mortar and a pestle for 1, 3 and 5 minutes.
About 10 mg of Form C was ground manually with a mortar and a pestle for 5 minutes.

[10] = pH 1.2 HCl buffer (0.1N), 37° C.
[11] = pH 3 citrate buffer (50 mM), 37° C.
[12] = pH 5 acetate buffer (50 mM), 37° C.
[13] = pH 7 phosphate buffer (50 mM), 37° C.
[14] = 10% relative humidity at 25° C.
[15] = 20% relative humidity at 25° C.
[16] = 30% relative humidity at 25° C.
[17] = 40% relative humidity at 25° C.
[18] = 50% relative humidity at 25° C.
[19] = 60% relative humidity at 25° C.
[20] = 70% relative humidity at 25° C.
[21] = 80% relative humidity at 25° C.
[22] = 90% relative humidity at 25° C.
[23] = 95% relative humidity at 25° C.
[24] = 25° C./92.5% RH, open container, 1 week
[25] = 25° C./92.5% RH, open container, 2 weeks
[26] = 25° C./92.5% RH, open container, 4 weeks
[27] = 40° C./75% RH, open container, 1 week
[28] = 40° C./75% RH, open container, 2 weeks
[29] = 40° C./75% RH, open container, 4 weeks
[30] = 60° C., tight container, 1 week
[31] = 60° C., tight container, 2 weeks
[32] = 60° C., tight container, 4 weeks
[33] = photo (visible light, closed, 1.2 million lux-hrs at 25° C.), clear vial
[34] = photo (visible light, closed, 1.2 million lux-hrs at 25° C.), wrapped with aluminum foil

Compound: Cc1nc(-c2c[nH]c3c(C#N)cccc23)cnc1OCC(C)(C)O [Form P, 3-(5-(2-hydroxy-2-methylpropoxy)-6-methylpyrazin-2-yl)-1H-indole-7-carbonitrile]
- Comments (crystallinity) ([1]; granulation solvent Ethanol): No obvious change in crystallinity
- XRPD ([1]; granulation solvent Ethanol): Form P
- Comments (crystallinity) ([1]; granulation solvent Water): No obvious change in crystallinity
- XRPD ([1]; granulation solvent Water): Form P
- solubility ([2]; 25 °C): < 5000 µg/mL
- solubility ([2]; 50 °C): < 5000 µg/mL
- XRPD ([3]; FaSSGF, pH 1.6, 37° C.): Form P
- XRPD ([3]; FaSSIF-v1, pH 6.5, 37° C.): Form P
- XRPD ([3]; FeSSIF-v1, pH 5.0, 37° C.): Form P
- XRPD ([3]; Water, 37° C.): Form P
- XRPD [3, 10]: Form P
- XRPD [3, 11]: Form P
- XRPD [3, 12]: Form P + one additional peak (It
- XRPD [3, 13]: Form P
- pH ([3]; FaSSGF, pH 1.6, 37° C.): 1.5
- pH ([3]; FaSSIF-v1, pH 6.5, 37° C.): 6.4
- pH ([3]; FeSSIF-v1, pH 5.0, 37° C.): 4.9
- pH ([3]; Water, 37° C.): 7.7
- pH [3, 10]: 1.1
- pH [3, 11]: 3.0
- pH [3, 12]: 4.9
- pH [3, 13]: 6.9
- 1st desorp. Weight % change ([4]; 0% relative humidity at 25° C.): 0.1%
- 1st sorp. Weight % change ([4]; 0% relative humidity at 25° C.): 0.1%
- 2nd desorp. Weight % change ([4]; 0% relative humidity at 25° C.): 0.0%
- 2nd sorp. Weight % change ([4]; 0% relative humidity at 25° C.): 0.0%
- 1st desorp. Weight % change [4, 14]: 0.1%
- 1st sorp. Weight % change [4, 14]: 0.1%
- 2nd desorp. Weight % change [4, 14]: 0.0%
- 2nd sorp. Weight % change [4, 14]: 0.0%
- 1st desorp. Weight % change [4, 15]: 0.1%
- 1st sorp. Weight % change [4, 15]: 0.1%
- 2nd desorp. Weight % change [4, 15]: 0.0%
- 2nd sorp. Weight % change [4, 15]: 0.0%
- Form after the DVS test ([4]; 25° C.): still in Form P
- 1st desorp. Weight % change [4, 16]: 0.2%
- 1st sorp. Weight % change [4, 16]: 0.1%
- 2nd desorp. Weight % change [4, 16]: 0.1%
- 2nd sorp. Weight % change [4, 16]: 0.0%
- 1st desorp. Weight % change [4, 17]: 0.2%
- 1st sorp. Weight % change [4, 17]: 0.1%
- 2nd desorp. Weight % change [4, 17]: 0.1%
- 2nd sorp. Weight % change [4, 17]: 0.0%
- 1st sorp. Weight % change [4, 18]: 0.1%
- 2nd desorp. Weight % change [4, 18]: 0.1%
- 1st sorp. Weight % change [4, 19]: 0.1%
- 2nd desorp. Weight % change [4, 19]: 0.2%
- 1st sorp. Weight % change [4, 20]: 0.1%
- 2nd desorp. Weight % change [4, 20]: 0.3%
- 1st sorp. Weight % change [4, 21]: 0.2%
- 2nd desorp. Weight % change [4, 21]: 0.4%
- 1st sorp. Weight % change [4, 22]: 0.8%
- 2nd desorp. Weight % change [4, 22]: 0.9%
- 1st sorp. Weight % change [4, 23]: 1.8%
- 2nd desorp. Weight % change [4, 23]: 1.8%
- Hygroscopicity ([4]; at 80% RH, 25° C.): non-hygroscopic (water uptake <0.2% = non-hygroscopic)
- water uptake ([4]; at 80% RH, 25° C.): about 0.1%
- water uptake ([4]; from 80% RH to 95% RH, 25° C.): About 1.6%
- Hygroscopicity ([4]; from 80% RH-95% RH, 25° C.): slightly hygroscopic (water uptake ≥0.2% but <2% = slightly hygroscopic)
- Form after heating [5]: converted to Form R
- Purity after holding ([6]; 0 h): Purity: 100%
- Purity after holding ([6]; 40° C., 22 h): 100%
- Purity after holding ([6]; 40° C., 4 d): 100%
- Purity after holding ([6]; 50° C., 22 h): 100%
- Purity after holding ([6]; 50° C., 4 d): 100%
- Purity after holding ([6]; 60° C., 22 h): 100%
- Purity after holding ([6]; 60° C., 4 d): 100%
- Purity after holding ([7]; 0 h): Purity: 100%
- Purity after holding ([7]; 40° C., 22 h): 100%
- Purity after holding ([7]; 40° C., 4 d): 100%
- Purity after holding ([7]; 50° C., 22 h): 100%
- Purity after holding ([7]; 50° C., 4 d): 100%
- Purity after holding ([7]; 60° C., 22 h): 100%
- Purity after holding ([7]; 60° C., 4 d): 100%
- Bulk (XRPD) [8, 24]: No form change
- Color [8, 24]: No color change
- Purity, Bulk (HPLC) [8, 24]: 100%
- Bulk (XRPD) [8, 25]: No form change
- Color [8, 25]: No color change
- Purity, Bulk (HPLC) [8, 25]: 100%
- Bulk (XRPD) [8, 26]: No form change
- Color [8, 26]: No color change
- Purity, Bulk (HPLC) [8, 26]: 100%
- Bulk (XRPD) [8, 27]: No form change
- Color [8, 27]: No color change
- Purity, Bulk (HPLC) [8, 27]: 100%
- Bulk (XRPD) [8, 28]: No form change
- Color [8, 28]: No color change
- Purity, Bulk (HPLC) [8, 28]: 100%
- Bulk (XRPD) [8, 29]: No form change
- Color [8, 29]: No color change
- Purity, Bulk (HPLC) [8, 29]: 100%
- Bulk (XRPD) [8, 30]: No form change
- Color [8, 30]: No color change
- Purity, Bulk (HPLC) [8, 30]: 99.9%
- Bulk (XRPD) [8, 31]: No form change
- Color [8, 31]: No color change
- Purity, Bulk (HPLC) [8, 31]: 100%
- Bulk (XRPD) [8, 32]: No form change
- Color [8, 32]: No color change
- Purity, Bulk (HPLC) [8, 32]: 100%
- Bulk, clear vial (XRPD) [8, 33]: No form change
- Color [8, 33]: medium discoloration
- Purity, Bulk, clear vial (HPLC) [8, 33]: ~60%
- Color [8, 34]: No color change
- Purity, Bulk, wrapped with aluminum foil (HPLC) [8, 34]: 100%
- Comments (crystallinity) ([9]; 1 min): No obvious change in crystallinity
- XRPD ([9]; 1 min): Form P
- Comments (crystallinity) ([9]; 3 min): No obvious change in crystallinity
- XRPD ([9]; 3 min): Form P
- Comments (crystallinity) ([9]; 5 min): No obvious change in crystallinity
- XRPD ([9]; 5 min): Form P
